System: cytokine response to LPS
Assay: Mouse endotoxin (LPS) challenge, peptide pretreatment 30 minutes prior, plasma cytokines
Conditions: peptide 500 micrograms per mouse, dexamethasone 3 mg/kg, PPL-002 p<0.01
Procedure: The ability of peptide pretreatment to inhibit the inflammatory cytokine response or stimulate the anti-inflammatory cytokine response to LPS was determined 2 hours after LPS injection (FIG. 10).
Peptides were dosed both i.p. and i.v. at 500 micrograms per mouse (10 mg/kg) 30 minutes prior to challenge by injection of endotoxin (LPS) at a dose of 50 micrograms/kg.

## C[C@@H]1C[C@H]2[C@@H]3CCC4=CC(=O)C=C[C@]4(C)[C@@]3(F)[C@@H](O)C[C@]2(C)[C@@]1(O)C(=O)CO [Dexamethasone, dexamethasone, reference compound]
  IL-10 level after LPS challenge, i.p. pretreatment: no effect
